Test results as given in patent publication US6525059B1, “Substituted pyrazoles as p38 kinase inhibitors” (G. D. Searle & Company, priority 1998, dated 2003).
Like-named read-outs stand apart in the source and are kept apart here.

Tests used:
TNF a = test: LPS stimulation of human PBMs, TNF a by ELISA; format: cell-based; settings: LPS-stimulated human PBMs, TNF cell assay; read-out: Human PBM Assay IC50
Method: Human whole blood was collected in Vacutainer tubes containing EDTA as an anticoagulant. A blood sample (7 ml) was carefully layered over 5 ml PMN Cell Isolation Medium (Robbins Scientific) in a 15 ml round bottom centrifuge tube. The sample was centrifuged at 450-500×g for 30-35 minutes in a swing out rotor at room temperature. After centrifugation, the top band of cells were removed and washed 3 times with PBS w/o calcium or magnesium. The cells were centrifuged at 400×g for 10 minutes at room temperature. The cells were resuspended in Macrophage Serum Free Medium (Gibco BRL) at a concentration of 2 million cells/ml.
Compounds were dissolved in DMSO initially and diluted in TCM for a final-concentration of 0.1% DMSO. LPS (Calbiochem, 20 ng/ml, final concentration) was then added at a volume of 0.010 ml. Cultures were incubated overnight at 37° C. Supernatants were then removed and tested by ELISA for TNF a and IL1-b. Viability was analyzed using MTS. After 0.1 ml supernatant was collected, 0.0,20 ml MTS was added to remaining 0.1 ml cells.

TNF-α = test: LPS stimulation of TNF production by U937 cells; format: cell-based, human; settings: Homo sapiens, U-937, LPS-stimulated U937 cells
How it was run: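 PMA-differentiated human U937 cells (20 ng/ml PMA, 24 h, then 24-48 h rest) at 2 million cells/ml, 0.1% DMSO final, stimulated with E. coli LPS (100 ng/ml final) for 4 h at 37° C. TNF-α in medium measured by ELISA; IC50 in μM.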

human p38 kinase alpha = target: T1, human p38 kinase alpha (Homo sapiens, UniProt Q16539); test: p38 kinase in vitro assay, phosphorylation of biotinylated PHAS-I with gamma 32P-ATP; format: biochemical; settings: activated human p38 kinase alpha, PHAS-I substrate, 50 μM unlabeled ATP; read-out: p38 kinase IC50
T1 construct: The coding region of the human p38a cDNA was obtained by PCR-amplification from RNA isolated from the human monocyte cell line THP.1; GST (N); made in house; host or cells: E. coli DH10B
T1 sequence (Q16539 whole entry): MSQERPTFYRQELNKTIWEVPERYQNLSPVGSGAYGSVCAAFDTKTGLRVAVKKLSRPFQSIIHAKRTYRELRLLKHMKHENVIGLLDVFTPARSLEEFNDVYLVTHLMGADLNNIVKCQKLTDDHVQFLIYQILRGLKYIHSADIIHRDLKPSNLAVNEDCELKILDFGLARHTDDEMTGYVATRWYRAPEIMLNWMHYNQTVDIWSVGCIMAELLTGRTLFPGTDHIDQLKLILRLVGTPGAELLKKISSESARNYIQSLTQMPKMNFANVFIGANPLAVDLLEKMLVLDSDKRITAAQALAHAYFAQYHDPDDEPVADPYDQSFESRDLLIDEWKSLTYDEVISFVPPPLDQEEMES
How it was run: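 Radiometric filter-capture read-out: streptavidin plates trap biotin-PHAS-I labelled by activated (MKK6) human p38α from γ-32P-ATP. Buffer 25 mM HEPES pH 7.5, 10 mM magnesium acetate, 50 μM cold ATP; reactions 1 h or overnight at 30 °C; inhibitors 10-fold dilutions 100 to 0.001 μM, triplicates, 1% DMSO.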

[1] = target: T2, human GST-p38 kinase alpha (Homo sapiens, UniProt Q16539); test: p38 kinase in vitro assay, second format, phosphorylation of EGFRP with 33P-ATP; format: biochemical; settings: p38α in vitro, EGFRP assay procedure; read-out: p38^2 IC50
T2 construct: The coding region of the human p38a cDNA was obtained by PCR-amplification from RNA isolated from the human monocyte cell line THP.1; made in house; host or cells: E. coli DH10B
T2 sequence (Q16539 whole entry): as above
How it was run: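 Activated human GST-p38α (pre-activated with GST-MKK6, 1 h, 30 °C) phosphorylates EGFR 21-mer peptide (200 μM) with 50 μM ATP plus γ-33P-ATP, pH 7.5, 60 min at room temperature. Unreacted ATP removed by AG 1×8 resin; supernatant scintillation-counted.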

TNF alpha = test: Mouse model of LPS-induced TNF alpha production; format: in vivo; settings: mouse, oral, 1h before LPS, 30 mpk; read-out: mLPS 1h, 30 mpk percent inhibition
Method: TNF alpha was induced in 10-12 week old BALB/c female mice by tail vein injection with 100 ng lipopolysaccharide (from S. Typhosa) in 0.2 ml saline. One hour later mice were bled from the retroorbital sinus and TNF concentrations in serum from clotted blood were quantified by ELISA.
Efficacy was determined at each time point as percent inhibition of serum TNF levels relative to LPS injected mice that received vehicle only
wherein in the dose is milligram per kilogram (mpk) administered by oral gavage and the predose time indicates the number of hours before LPS challenge when the compound is administered.

Row | IC50 (TNF a) [nM] | IC50 (TNF-α; read-out: U937 Cell Assay IC50) [nM] | Compound | also measured
1 | 100 | 222 | Cc1[nH]nc(-c2ccc(F)cc2)c1-c1ccncc1 [Example 4, 4-[3-(4-fluorophenyl)-5-methyl-1H-pyrazol-4-yl)pyridine] | 
2 | 500 |  | COc1ccc(-c2[nH]nc(C)c2-c2ccncc2)cc1F [Example A-1, 4-[5-(3-fluoro-4-methoxyphenyl)-3-methyl-1H-pyrazol-4-yl]pyridine] | IC50 (human p38 kinase alpha): 4600 nM
3 | 1600 | 578 | Cc1n[nH]c(-c2ccccc2)c1-c1ccncc1 [Example A-2, 4-(3-methyl-5-phenyl-1H-pyrazol-4-yl)pyridine] | IC50 (human p38 kinase alpha): 1500 nM; melting point: 212 to 214 °C
4 | 200 | 201 | Cc1n[nH]c(-c2ccc(Cl)cc2)c1-c1ccncc1 [Example A-7, 4-(3-(4-chlorophenyl)-5-methyl-1H-pyrazol-4-yl)pyridine] | 
5 | < 100 |  | Cc1cccc(-c2[nH]nc(C)c2-c2ccncc2)c1 [Example A-8] | IC50 (human p38 kinase alpha): < 100 nM
6 | 400 |  | Cc1ccc(C)c(-c2[nH]nc(C)c2-c2ccncc2)c1 [Example A-9] | 
7 | 700 | 1690 | Cc1n[nH]c(-c2ccc3c(c2)OCO3)c1-c1ccncc1 [Example A-10, 4-[5-(1,3-benzodioxol-5-yl)-3-methyl-1H-pyrazol-4-yl]pyridine] | 
8 | 8500 |  | Cc1n[nH]c(-c2ccc(-c3ccccc3)cc2)c1-c1ccncc1 [Example A-12, 4-[5-[(1,1′-biphenyl)-4-yl]-3-methyl-1H-pyrazol-4-yl]pyridine] | 
9 | 4800 |  | Cc1n[nH]c(-c2cccc(Oc3ccccc3)c2)c1-c1ccncc1 [Example A-13] | 
10 | 1200 |  | Cc1n[nH]c(-c2cccc(OCc3ccccc3)c2)c1-c1ccncc1 [Example A-14, 4-[3-methyl-5-[3-(phenylmethoxy)phenyl]-1H-pyrazol-4-yl]pyridine] | 
11 | 1100 |  | Cc1n[nH]c(-c2cccc(O)c2)c1-c1ccncc1 [Example A-17, 3-[3-methyl-4-(4-pyridinyl)-1H-pyrazol-4-yl]phenol] | 
12 | 300 | 484 | CN(C)c1n[nH]c(-c2ccc(F)cc2)c1-c1ccncc1 [Example A-19, 5-(4-fluorophenyl)-N, N-dimethyl-4-(4-pyridinyl)-1H-pyrazol-3-amine] | melting point: 245 to 247 °C
13 | 3200 |  | Cc1cccc(-c2[nH]nc(C(F)(F)F)c2-c2ccncc2)c1 [Example A-22, 4-[5-(3-methylphenyl)-3-(trifluoromethyl)-1H-pyrazol-4-yl]pyridine] | melting point: 237 to 239 °C
14 | 8200 |  | Cc1n[nH]c(C2CCCCC2)c1-c1ccncc1 [Example A-24] | 
15 | < 100 |  | CCc1[nH]nc(-c2cccc(C)c2)c1-c1ccncc1 [Example A-45] | IC50 (human p38 kinase alpha): < 100 nM
16 |  |  | N#Cc1cc(-c2c[nH]nc2-c2ccc(F)cc2)ccn1 [Example A-215, 4-[3-(4-fluorophenyl)-1H-pyrazol-4-yl]-2-pyridinecarbonitrile] | IC50 [1]: 2340 nM; IC50 (TNF-α; read-out: U937 IC50): 298 nM; inhibition in vivo at 30 mg/kg (TNF alpha): 80%; melting point: 209.22 °C
